Consider 10 compounds from patent publication US20240251792A1, “WEED CONTROL METHOD” (SYNGENTA CROP PROTECTION AG, priority 2021, published 2024).

Holding throughout (assay type): in vivo
The subject of experiment [1] is DIGSA. Kind of experiment: Biological efficacy, pre-emergence glasshouse test (Table 2). As to conditions: 1000 g/ha, after 12 days. As to the method: (§1) Seeds of a variety of test species were shown in unsterilised compost in small pots. After cultivation for one day (pre-emergence) or seven days (post-emergence) in controlled conditions in the glasshouse (at 24/16° C., day/night; 14 hours light; 65% humidity) the plants were sprayed with 1 mg of the active ingredient, formulated in 466 μl of a acetone/water/Tween 20 (49.75:49.75:0.5) solution, which is equivalent to 1000 g/ha. Once the foliage was dry, the pots were kept in the glasshouse (at 24/16° C., day/night; 14 hours light; 65% humidity), and were watered twice daily. After 12 days the test was evaluated and scored (100=total damage to plant, 0=no damage to plant).

Experiment [2] concerns AMARE. The description is as above. The settings on record: 1000 g/ha, after 12 days. How it is done: as §1
The test system of experiment [3] is STEME. The description is as above. The settings on record: 1000 g/ha, after 12 days. How it is done: as §1
Experiment [4] relates to LOLPE. Described as above. As to conditions: 1000 g/ha, after 12 days. As to the method: as §1
The subject of experiment [5] is DIGSA. The experiment in a line: Biological efficacy, post-emergence glasshouse test (Table 2). As to conditions: 1000 g/ha, after 12 days. How it is done:
as §1

Experiment [6] relates to AMARE. The experiment is described as above. As to conditions: 1000 g/ha, after 12 days. As to the method:
as §1

The test system of experiment [7] is STEME. The description is as above. The settings on record: 1000 g/ha, after 12 days. How it is done:
as §1

In experiment [8] the test system is LOLPE. The experiment is described as above. As to conditions: 1000 g/ha, after 12 days. How it is done: as §1
The subject of a further experiment is ABUTH. Kind of experiment: Pre-emergence biological efficacy (Table 3). As to conditions: after 13 days; for pest or weed control at 1000 g/ha: Abutilon theophrasti, 312 h, read-out: evaluation (100=total damage to plant; 0=no damage to plant). Put shortly:
(§2)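 After sowing in pots and one day of glasshouse cultivation, spray is applied at the desired dose from a 50 g/l acetone/AMA stock diluted in 0.2% Genapol X080. Plants grow at 24/18 °C, 15 h light, 50% humidity, and damage is rated 0–100 after 13 days.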

The subject of another experiment is ZEAMX. Kind of experiment: Pre-emergence biological efficacy (Table 3). The settings on record: 1000 g/ha, after 13 days; for plant injury at 1000 g/ha: 312 h, read-out: evaluation (100=total damage to plant; 0=no damage to plant). Put shortly:
as §2

The subject of another experiment is ECHCG. Kind of experiment: Pre-emergence biological efficacy (Table 3). The settings on record: 1000 g/ha, after 13 days; for pest or weed control at 1000 g/ha: Echinochloa crus-galli, 312 h, read-out: evaluation (100=total damage to plant; 0=no damage to plant). In outline: as §2
In experiment [9] the test system is AMARE. The experiment in a line: Pre-emergence biological efficacy (Table 3). The settings on record: 1000 g/ha, after 13 days; for pest or weed control at 1000 g/ha: Amaranthus retroflexus, 312 h, read-out: evaluation (100=total damage to plant; 0=no damage to plant). In outline: as §2
In experiment [10] the test system is STEME. Kind of experiment: Pre-emergence biological efficacy (Table 3). As to conditions: after 13 days; for pest or weed control at 1000 g/ha: 312 h, read-out: evaluation (100=total damage to plant; 0=no damage to plant). Put shortly: as §2
The subject of a further experiment is IPOHE. The experiment in a line: Pre-emergence biological efficacy (Table 3). The settings on record: 1000 g/ha, after 13 days; for pest or weed control at 1000 g/ha: Ipomoea hederacea, 312 h, read-out: evaluation (100=total damage to plant; 0=no damage to plant). Put shortly: as §2
The test system of another experiment is weeds and/or crops. The experiment in a line: Post-emergence biological efficacy (Table 4). The settings on record: 1000 g/ha, evaluated after 13 days; for pest or weed control at 1000 g/ha: 312 h. Put shortly:
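Scores are visual damage (0 = none, 100 = total), read 13 days after treatment at 24/18 °C with 15 h light. Plants had been sown in standard soil and grown 14 days before a spray of compound in F50/acetone, diluted with 0.2% Genapol X080.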

[11] abbreviates: STEME, read-out: damage to plant STEME (100=total damage; 0=no damage).
Where [12] appears, read: ZEAMX, read-out: damage to plant ZEAMX (100=total damage; 0=no damage).
Where [13] appears, read: Abutilon theophrasti, ABUTH, read-out: damage to plant ABUTH (100=total damage; 0=no damage).
Setting [14] is: Amaranthus retroflexus, AMARE, read-out: damage to plant AMARE (100=total damage; 0=no damage).
Where [15] appears, read: Echinochloa crus-galli, ECHCG, read-out: damage to plant ECHCG (100=total damage; 0=no damage).
[16] abbreviates: Ipomoea hederacea, IPOHE, read-out: damage to plant IPOHE (100=total damage; 0=no damage).

Where two headings read alike, the source gives them in different places.

For the compound `N#Cc1cccc(C(F)(F)C(=O)O)c1` [Compound 1-186], the “score (100=total damage to plant, 0=no damage to plant)” value with DIGSA [1] is 0; with AMARE [2], 10; in the experiment with STEME [3] it was 10; in the experiment with LOLPE [4] it was 0; in the experiment with DIGSA [5], 0; in the experiment with AMARE [6] it was 60. In addition, the results for the “score (100=total damage to plant, 0=no damage to plant)” value with STEME [7] and in the experiment on LOLPE [8] were 30 and 0, respectively.

Consider `CCOC(=O)C(F)(F)c1cccc2ccccc12` [Compound 3-397, Ethyl 2,2-difluoro-2-(1-naphthyl)acetate], for which the pest or weed control at 1000 g/ha amounted to 50% in the experiment on ABUTH; 0% in the experiment on ECHCG; 10% in the experiment with AMARE [9]; 40% in the experiment on STEME [10]; 0% in the experiment with IPOHE; 100% in the experiment with weeds and/or crops (setting [11]). The pest or weed control at 1000 g/ha turned out to be 0% with weeds and/or crops (setting [12]); 90% in the experiment with weeds and/or crops (setting [13]); 10% with weeds and/or crops (setting [14]); 0% in the experiment with weeds and/or crops (setting [15]); 60% in the experiment on weeds and/or crops (setting [16]). In addition, the plant injury at 1000 g/ha in the experiment with ZEAMX came to 20%. In addition, the “score (100=total damage to plant, 0=no damage to plant)” value in the experiment on DIGSA [1] came out at 0; with AMARE [2], 0; with LOLPE [4], 0; in the experiment with DIGSA [5] it was 0; in the experiment on AMARE [6], 40; with STEME [7] it was 70. For the same compound, the “score (100=total damage to plant, 0=no damage to plant)” value with LOLPE [8] was found to be 0.

For `O=C(O)C(F)(F)c1ccc(OC(F)(F)F)cc1` [Compound 1-3], the “score (100=total damage to plant, 0=no damage to plant)” value in the experiment with DIGSA [1] was found to be 0; in the experiment with AMARE [2], 50; with STEME [3], 30; in the experiment on LOLPE [4], 30; in the experiment on DIGSA [5], 0; in the experiment with AMARE [6], 70. The “score (100=total damage to plant, 0=no damage to plant)” value in the experiment with STEME [7] came out at 30; in the experiment with LOLPE [8], 0.

On to `COc1cccc(C(F)(F)C(=O)O)c1` [Compound 1-6], for which the “score (100=total damage to plant, 0=no damage to plant)” value in the experiment with DIGSA [1] is reported as 0; with STEME [3], 0; in the experiment with LOLPE [4] it was 0; in the experiment with DIGSA [5] it was 0; in the experiment on AMARE [6], 80; with STEME [7], 20. In addition, in the experiment with LOLPE [8], the “score (100=total damage to plant, 0=no damage to plant)” value is reported as 0.

Take `N#Cc1ccccc1C(F)(F)C(=O)[O-].[Li+]` [Compound 5-255]: the “score (100=total damage to plant, 0=no damage to plant)” value in the experiment on DIGSA [1] is on record as 0; in the experiment with AMARE [2], 20; with LOLPE [4], 0; with DIGSA [5] it was 0; in the experiment on AMARE [6] it was 70; with STEME [7], 70. Moreover, the “score (100=total damage to plant, 0=no damage to plant)” value in the experiment with LOLPE [8] is 0.

For the compound `CSc1c(Cl)cccc1C(F)(F)C(=O)O` [Compound 1-356, 2-(3-Chloro-2-(methylthio)phenyl)-2,2-difluoroacetic acid], the pest or weed control at 1000 g/ha in the experiment on ABUTH turned out to be 30%; in the experiment with ECHCG, 0%; in the experiment on AMARE [9], 50%; in the experiment on STEME [10], 30%; in the experiment with IPOHE, 50%; in the experiment on weeds and/or crops (setting [11]) it was 70%. For the same compound, the pest or weed control at 1000 g/ha stood at 10% in the experiment on weeds and/or crops (setting [12]); 60% with weeds and/or crops (setting [13]); 40% in the experiment with weeds and/or crops (setting [14]); 0% in the experiment on weeds and/or crops (setting [15]); 70% with weeds and/or crops (setting [16]). Also, the plant injury at 1000 g/ha in the experiment with ZEAMX turned out to be 10%.

As for `Nc1ccc(Cl)c(Cl)c1C(F)(F)C(=O)[O-].[Li+]` [Compound 5-80, Lithium;2-(6-amino-2,3-dichloro-phenyl)-2,2-difluoro-acetate], the “evaluation (100=total damage to plant; 0=no damage to plant)” value in the experiment with ABUTH (1000 g/ha), with ZEAMX, in the experiment with ECHCG, in the experiment with AMARE [9], in the experiment with STEME [10] (1000 g/ha) and in the experiment on IPOHE was 0 each time. For the same compound, in the experiment on weeds and/or crops (AMARE), the “damage to plant AMARE (100=total damage; 0=no damage)” value was determined as 20. In addition, in the experiment with weeds and/or crops (ECHCG), the “damage to plant ECHCG (100=total damage; 0=no damage)” value worked out at 0. The “damage to plant IPOHE (100=total damage; 0=no damage)” value with weeds and/or crops (IPOHE) is 10. In the experiment on weeds and/or crops (STEME), the “damage to plant STEME (100=total damage; 0=no damage)” value is recorded as 10. In addition, the “damage to plant ZEAMX (100=total damage; 0=no damage)” value with weeds and/or crops (ZEAMX) stood at 10.

Take `O=C(O)C(F)(F)c1c(Cl)ccc2cccnc12` [Compound 1-407, 2-(7-Chloroquinolin-8-yl)-2,2-difluoroacetic acid]: the pest or weed control at 1000 g/ha with ABUTH amounted to 70%; in the experiment with ECHCG it was 50%; in the experiment on AMARE [9], 60%; in the experiment on STEME [10], 10%; in the experiment on IPOHE, 60%; with weeds and/or crops (setting [11]) it was 30%. In addition, the pest or weed control at 1000 g/ha stood at 0% with weeds and/or crops (setting [12]), 70% with weeds and/or crops (setting [14]), 0% in the experiment with weeds and/or crops (setting [15]) and 80% in the experiment with weeds and/or crops (setting [16]). The plant injury at 1000 g/ha in the experiment with ZEAMX was determined as 40%.

`Cc1noc2ccc(Cl)c(C(F)(F)C(=O)O)c12` [Compound 1-395, 2-(5-Chloro-3-methyl-1,2-benzoxazol-4-yl)-2,2-difluoro-acetic acid]: the pest or weed control at 1000 g/ha is 10% in the experiment on ABUTH; 20% with ECHCG; 30% with AMARE [9]; 10% in the experiment with STEME [10]; 50% with IPOHE; 20% with weeds and/or crops (setting [11]). Also, the pest or weed control at 1000 g/ha in the experiment on weeds and/or crops (setting [12]) stood at 0%; with weeds and/or crops (setting [13]) it was 20%; in the experiment on weeds and/or crops (setting [14]) it was 40%; with weeds and/or crops (setting [15]), 10%; with weeds and/or crops (setting [16]) it was 70%. In addition, the plant injury at 1000 g/ha with ZEAMX amounted to 0%.

For `Nc1c(Cl)cc(Cl)c(Cl)c1C(F)(F)C(=O)O` [Compound 1-81, 2-(2-Amino-3,5,6-trichloro-phenyl)-2,2-difluoro-acetic acid], the pest or weed control at 1000 g/ha in the experiment on ABUTH is 20%; in the experiment with ECHCG it was 0%; in the experiment on AMARE [9], 30%; in the experiment with STEME [10], 20%; with IPOHE it was 10%; with weeds and/or crops (setting [11]), 50%. Moreover, the pest or weed control at 1000 g/ha in the experiment on weeds and/or crops (setting [12]) was determined as 0%; in the experiment on weeds and/or crops (setting [13]), 20%; in the experiment with weeds and/or crops (setting [14]), 50%; in the experiment on weeds and/or crops (setting [15]), 10%; with weeds and/or crops (setting [16]), 50%. Besides, in the experiment with ZEAMX, the plant injury at 1000 g/ha was determined as 0%.
